Measured values published in BigSolDB 2.1.

CCOc1ccc2ccccc2c1C(=O)O
solubility (mole fraction)
Details | 278.15 K | 283.15 K | 288.15 K | 293.15 K | 298.15 K | 303.15 K | 308.15 K | 313.15 K | 318.15 K | 323.15 K
in acetone | 0.0535 | 0.0606 | 0.0691 | 0.0781 | 0.089 | 0.0994 | 0.112 | 0.127 | 0.142 | 0.159
in acetonitrile | 0.00615 | 0.00747 | 0.00921 | 0.011 | 0.0135 | 0.0165 | 0.022 | 0.0254 | 0.0308 | 0.0378
in ethanol | 0.0268 | 0.0325 | 0.0392 | 0.0469 | 0.0565 | 0.0688 | 0.0836 | 0.101 | 0.119 | 0.136
in ethyl acetate | 0.015 | 0.0174 | 0.0204 | 0.0239 | 0.0279 | 0.0331 | 0.038 | 0.0447 | 0.0526 | 0.0606
in isobutanol | 0.0111 | 0.0138 | 0.0172 | 0.0208 | 0.0256 | 0.0322 | 0.0396 | 0.0508 | 0.0623 | 0.0779
in isopropanol | 0.0148 | 0.0181 | 0.0228 | 0.0287 | 0.036 | 0.0459 | 0.058 | 0.0733 | 0.0901 | 0.112
in isopropyl acetate | 0.0118 | 0.0136 | 0.0155 | 0.0185 | 0.0213 | 0.0245 | 0.029 | 0.0333 | 0.0389 | 0.0454
in methanol | 0.0304 | 0.037 | 0.0443 | 0.0552 | 0.0671 | 0.0821 | 0.0951 | 0.114 | 0.134 | 0.151
in methyl acetate | 0.0153 | 0.0181 | 0.0215 | 0.0254 | 0.0301 | 0.0356 | 0.0417 | 0.0495 | 0.0587 | 0.0693
in n-pentanol | 0.0174 | 0.0205 | 0.0248 | 0.0296 | 0.0356 | 0.0431 | 0.052 | 0.0632 | 0.0744 | 0.0902
in n-propanol | 0.0212 | 0.0236 | 0.0283 | 0.0345 | 0.0424 | 0.0511 | 0.0632 | 0.0779 | 0.092 | 0.114
in n-propyl acetate | 0.0129 | 0.0149 | 0.0177 | 0.0204 | 0.024 | 0.028 | 0.0322 | 0.0381 | 0.0445 | 0.0516
